# Measured values taken from patent US11713318B2, “Short conjugated oligoelectrolytes and uses thereof” (The Regents Of The University Of California, priority 2018, dated 2023).
# Read-outs that look alike come from different tables or passages of the source.
# Assays:
# [1] = tested on: S. aureus (MRSA) (clinical isolate); test: MIC panel of pathogens, Table 4; type: cell-based; conditions: Staphylococcus aureus, clinical isolate from Cottage Hospital
# [2] = tested on: S. aureus (MSSA); test: MIC panel of pathogens, Table 4; type: cell-based; conditions: Staphylococcus aureus
# [3] = tested on: RAW264.7 (ATCC TIB-71) cells; test: Cytotoxicity, MTT assay; type: cell-based, murine; conditions: Mus musculus, RAW264.7; RAW 264.7; MTT, 24 hours incubation; read-out: IC50
# Description: Before removing the frozen cell stocks from liquid nitrogen, culture medium was pre-warmed to 37° C. The frozen tube was then removed from liquid nitrogen and placed into a 37° C. water bath and shaken gently to thaw the cell stock as quickly as possible. A small portion of the pre-warmed culture medium was added to the cell solution. The cell suspension was then centrifuged at 1000 r/min for 3 minutes. The supernatant was discarded and the cells were resuspended in fresh culture medium.
# NIH 3T3 (ATCC CRL-1658) and Hep G2 (ATCC HB-8065) cells were cultured with DMEM+10% FBS in 100 mm dishes. Cells were lifted for subculture or testing when confluence reached ˜60% by treating with 1× trypsin (incubated for 3 min at 37° C.). J774 (ATCC TIB-67) cells were cultured with DMEM+10% FBS in 100 mm dishes. Cells were lifted for subculture or testing when confluence reached ˜80% using a cell scraper. RAW264.7 (ATCC TIB-71) cells were cultured with DMEM+10% heat-inactivated FBS+1% pen/strep in T75 flasks. Cells were lifted for subculture or testing when confluence reached ˜80% using a cell scraper.
# • 1. Cells were lifted and resuspended in culture medium. The number of cells in the cell suspension was determined using an auto-cell counter: 10 μL of the cell suspension was mixed with 10 μL 1× trypan blue (filtered with 0.2 μm PES filter) and the mixture was loaded onto a cell counting slide. Based on the concentration of viable cells, the cell suspension was further diluted to achieve the desired density. • 2. […] The 96-well plates were analyzed in a plate reader using the following method: shake for 5 minutes, wait for 30 seconds, and measure absorbance at 570 nm. • 8. Data processing: The average of background Abg was calculated from the blank column. […] The average A. and standard deviation Se of each experimental group and the average Ac and standard deviation Sc for control group (with pure culture medium incubation) were then calculated. The cell viability was determined as Ae/Ac×100% and corresponding error as Se/Ae×100%. […]
# [4] = Cytotoxicity tested by Eurofins Pharma Discovery Services; type: cell-based; conditions: human, Hep G2 cells; Hep G2, Eurofins; at the concentration given as IC50 bound; read-out: cell viability at the highest or lowest test concentration
# [5] = as above; type: cell-based; conditions: Primary Human Hepatocytes, Eurofins; at the concentration given as IC50 bound; read-out: cell viability at the highest or lowest test concentration
Compound,MIC [1] [µg/mL],MIC [2] [µg/mL],IC50 [3] [µg/mL],viability [4] [%],viability [5] [%]
CCCCCC[N+](C)(C)CCCCCCOc1cc(/C=C/c2cc(OCCCCCC[N+](C)(C)CCCCCC)cc(OCCCCCC[N+](C)(C)CCCCCC)c2)cc(OCCCCCC[N+](C)(C)CCCCCC)c1 [Formula E],1,1,3.76,–,–
C[N+](C)(C)CCCCOc1cc(/C=C/c2ccc(/C=C/c3cc(OCCCC[N+](C)(C)C)cc(OCCCC[N+](C)(C)C)c3)cc2)cc(OCCCC[N+](C)(C)C)c1.[I-].[I-].[I-].[I-] [Formula F],–,–,–,70,79
